# Laboratory results taken from US20110195420A1, “ESTROGEN AND ANTI-ESTROGEN MARKER GENES” (Merck Patent Gesellschaft, priority 2009, published 2011).
# “Also recorded” adds a separate entry of the source. Read-outs that look alike come from different tables or passages of the source.
# Columns and labels:
# Ishikawa plus cells = test: Illumina global gene expression profiling in Ishikawa plus cells after 24 h EAC treatment (ANOVA, correlation, K-Means clustering); assay type: cell-based, human
# Procedure: Cells were routinely maintained in DMEM/F12 with L-Glutamine and 15 mM Hepes supplemented with 10% (v/v) FBS, 1% (v/v) penicillin (10 kU/ml)-streptomycin (10 mg/ml) solution, 0.1% (v/v) Gentamicin (50 mg/ml) and 1 mM sodium pyruvate at 37° C. and 5% CO2 in culture flasks. 5×10^5 cells were seeded onto 6-well plates in phenol-red free DMEM/F12 with L-Glutamine and 15 mM Hepes containing 10% (v/v) dextran-coated charcoal treated FBS, sodium pyruvate and antibiotics.
# All experiments were performed three times with cells of passages 3-25.
# After a 24 h treatment period cells were rinsed with PBS (Gibco Invitrogen, Karlsruhe, Germany), harvested and total RNA was extracted using the RNeasy Mini Kit (QIAGEN, Hilden, Germany) as described by the manufacturer, including the QIAshredder spin column procedure and on-column RNase-free DNase digestion. RNA was eluted with 40 μl of RNA-Storage solution (Ambion, Darmstadt, Germany). RNA quality control and quantification was determined using a NanoDrop® spectrophotometer (Kisker, Steinfurt, Germany) and 2100 Agilent Bio-Analyzer (Agilent Technologies, Waldbronn, Germany). Only RNA with a quality ratio A260/A280 between 1.9 and 2.1 and no evidence of peak degradation (18s/28s) was used.
# Gene expression analysis was executed using Illumina Sentrix® HumanRef-8 V2 BeadChip Arrays (Illumina Inc., San Diego, Calif., USA) allowing the analysis of ˜23,000 transcripts. […] Instead of column cleanup, the bead-based Agencourt® RNAcIean™ system (Beckman Coulter, Krefeld, Germany) was applied to purify cDNA and cRNA. cRNA quantity was measured spectrophotometrically (NanoDrop®) and the 2100 Agilent Bio-Analyzer was used for quality assessment.
# Seven hundred fifty nanograms of amplified biotinylated cRNA were hybridized onto the Illumina Sentrix® BeadChip in a Hybridization Cartridge under humidified conditions for 20 h at 58° C. (Hybridization oven, Illumina Inc., San Diego, Calif., USA). The chips were then washed, stained for 10 minutes with 1 μg/ml streptavidin-conjugated Cy3 (Amersham Biosciences, Buckinghamshire, UK) and finally dried by centrifugation according to the protocol provided.
# Data were uploaded into Genedata's Expressionist® Analyst software (Genedata AG, Basel, Switzerland) for data normalization and statistical analysis. Data were normalized using Lowess (Locally Weighted Linear Regression) to offset non-biological differences (systematic variation) between the samples and arrays. After normalization fold-regulations for each individual compound treatment were calculated. The global gene set was reduced by filtering any signal intensity<200 (background level) to reduce error rates of multiple testing during further analysis.
# Thus, only genes with a p-value and BH-Q-value less than 0.01 were accepted as significant.
# For selection of characteristic estrogenicity marker genes, ANOVA was applied to the tested EACs against the vehicle controls. Only genes having a p-value and BH-Q-value less than 0.01 were accepted as significant.
# ERα = target: T1, ERα (Homo sapiens, UniProt P03372); conditions: consensus ERE reporter; used as low dose level; read-out: compound concentration causing a half maximal activation of the reporter gene (EC50); cited from earlier work
# T1 sequence (P03372 1-595): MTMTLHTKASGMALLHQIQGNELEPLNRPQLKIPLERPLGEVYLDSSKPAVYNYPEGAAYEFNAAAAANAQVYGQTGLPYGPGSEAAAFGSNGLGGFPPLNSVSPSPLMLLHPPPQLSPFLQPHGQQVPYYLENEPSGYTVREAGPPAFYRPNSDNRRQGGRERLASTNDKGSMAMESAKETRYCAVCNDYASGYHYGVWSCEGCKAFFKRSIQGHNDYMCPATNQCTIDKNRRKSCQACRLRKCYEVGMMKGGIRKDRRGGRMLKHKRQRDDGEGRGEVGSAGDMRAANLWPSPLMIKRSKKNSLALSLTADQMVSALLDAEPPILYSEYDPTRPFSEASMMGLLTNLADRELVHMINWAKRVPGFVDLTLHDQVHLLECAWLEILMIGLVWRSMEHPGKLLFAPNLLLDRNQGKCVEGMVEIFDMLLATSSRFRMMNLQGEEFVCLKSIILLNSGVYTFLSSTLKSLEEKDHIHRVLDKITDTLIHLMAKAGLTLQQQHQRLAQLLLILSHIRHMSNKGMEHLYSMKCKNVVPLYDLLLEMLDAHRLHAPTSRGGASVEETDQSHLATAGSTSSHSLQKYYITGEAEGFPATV
# [1] = Pearson correlation on significantly regulated genes, 24 h, dose not specified
# [2] = clusters 3 and 4, same direction as ICI, 24 h
# [3] = K-Means clustering, p-value/BH-Q-value<0.01, 24 h
# [4] = Pearson correlation, 24 h, high dose
# [5] = Pearson correlation, 24 h, low dose
structure (smiles),measurement,setting,value
"CC(C)(c1ccc(O)cc1)c1ccc(O)cc1 [BPA, Bisphenol A]",share of ER-dependent regulated genes (clusters 1 and 2) also regulated in the same direction after DES treatment,Ishikawa plus cells; 24 h,Eighty
same,correlation of gene expression compared with DES,Ishikawa plus cells; [1],low positive correlation
same,correlation of gene expression to ICI,Ishikawa plus cells; [1],high positive correlation; also recorded: high correlations; also recorded: good correlation
same,"anti-estrogen-like gene regulation, share of significantly regulated genes",Ishikawa plus cells; [2],86%
"Clc1ccc(C(c2ccccc2Cl)C(Cl)(Cl)Cl)cc1 (stereo not drawn) [DDT, o,p′-Dichlordiphenyltrichlorethane]","anti-estrogen-like gene regulation, share of significantly regulated genes",Ishikawa plus cells,85%
same,correlation of gene expression compared with DES,Ishikawa plus cells,low positive correlation
same,correlation of gene expression to ICI,Ishikawa plus cells,high positive correlation; also recorded: high correlations; also recorded: good correlation
same,share of ER-dependent regulated genes (clusters 1 and 2) also regulated in the same direction after DES treatment,Ishikawa plus cells,72%
"CC/C(=C(/CC)c1ccc(O)cc1)c1ccc(O)cc1 [DES, Diethylstilbestrol]",kind of regulated genes identified by K-Means clustering,"Ishikawa plus cells; 24 h, dose not specified",only genes with ER-dependent expression profiles; also recorded: Only genes with ER-dependent regulation profiles
same,number of down-regulated genes with ER-dependent expression profiles,Ishikawa plus cells; [3],62
same,number of up-regulated genes with ER-dependent expression profiles,Ishikawa plus cells; [3],193
same,correlation of gene expression to ICI,Ishikawa plus cells; [1],negatively correlated
"O=c1c(-c2ccc(O)cc2)coc2cc(O)cc(O)c12 [GEN, Genistein]",doses at which anti-estrogenic gene regulation was displayed,Ishikawa plus cells; 24 h,only at low doses
same,share of ER-dependent regulated genes (clusters 1 and 2) also regulated in the same direction after DES treatment,Ishikawa plus cells; 24 h,Approximately 66%
same,correlation of gene expression to ICI,Ishikawa plus cells; [1],good correlation
same,correlation of gene expression compared with DES,Ishikawa plus cells; [4],medium to high correlations
same,similarity of gene expression with ICI,Ishikawa plus cells; [4],little similarity
same,correlation of gene expression compared with DES,Ishikawa plus cells; [5],low positive correlation
same,correlation of gene expression to ICI,Ishikawa plus cells; [5],high positive correlation; also recorded: high correlations
same,kind of regulated genes identified by K-Means clustering,"Ishikawa plus cells; high dose, 24 h",only ER-dependent regulated genes were identified; also recorded: Only genes with ER-dependent regulation profiles
same,share of low dose deregulated genes similarly regulated by ICI (clusters 5 and 6),"Ishikawa plus cells; low dose, 24 h",approximately 86%
"C[C@]12CC[C@@H]3c4ccc(O)cc4C[C@@H](CCCCCCCCC[S+]([O-])CCCC(F)(F)C(F)(F)F)[C@H]3[C@@H]1CC[C@@H]2O (stereo partly drawn) [ICI, ICI 182,780]",regulation of the 87 marker genes,"Ishikawa plus cells; ICI 100 nM alone and ICI/compound combination, 24 h",Most genes showed a weaker regulation score or were diametrically regulated
"Oc1ccc(C=Cc2cc(O)cc(O)c2)cc1 [RESV, Resveratrol]","estrogen-like gene expression, share of significantly regulated genes",Ishikawa plus cells; 24 h,48%
same,portion of the putative estrogenic marker genes regulated unidirectional to ICI,Ishikawa plus cells; 24 h,one third
same,share of ER-dependent regulated genes (clusters 1 and 2) also regulated in the same direction after DES treatment,Ishikawa plus cells; 24 h,6%
same,correlation of gene expression compared with DES,Ishikawa plus cells; [1],no correlation
same,correlation of gene expression to ICI,Ishikawa plus cells; [1],high positive correlation
same,"anti-estrogen-like gene regulation, share of significantly regulated genes",Ishikawa plus cells; [2],52%
same,EC50,ERα,7.5 µM
"C[C@H]1CCCC(=O)CCC/C=C/c2cc(O)cc(O)c2C(=O)O1 [ZEA, Zearalenone]",doses at which anti-estrogenic gene regulation was displayed,Ishikawa plus cells; 24 h,only at low doses
same,share of ER-dependent regulated genes (clusters 1 and 2) also regulated in the same direction after DES treatment,Ishikawa plus cells; 24 h,Approximately 66%
same,correlation of gene expression to ICI,Ishikawa plus cells; [1],good correlation
same,correlation of gene expression compared with DES,Ishikawa plus cells; [4],medium to high correlations
same,similarity of gene expression with ICI,Ishikawa plus cells; [4],little similarity
same,correlation of gene expression compared with DES,Ishikawa plus cells; [5],low positive correlation
same,correlation of gene expression to ICI,Ishikawa plus cells; [5],high positive correlation; also recorded: high correlations
same,kind of regulated genes identified by K-Means clustering,"Ishikawa plus cells; high dose, 24 h",only ER-dependent regulated genes were identified; also recorded: Only genes with ER-dependent regulation profiles
same,share of low dose deregulated genes similarly regulated by ICI (clusters 5 and 6),"Ishikawa plus cells; low dose, 24 h",~91%
same,EC50,ERα,0.0025 µM
